Source: article PMC9953224, “Pharmacokinetic Evaluation of New Drugs Using a Multi-Labelling Approach and PET Imaging: Application to a Drug Candidate with Potential Application in Neuromuscular Disorders” (Biomedicines, 2023)
Read-outs that look alike come from different tables or passages of the source.

Assays:
[1] = Pharmacokinetics from metabolite-corrected arterial plasma TACs after intravenous administration; format: in vivo, Sprague Dawley Rats; settings: for MRT / Vd / half-life: Sprague Dawley, rat, arterial plasma; for MRT: read-out: MRT mean residence time (converted); for Vd / half-life: iv; for half-life: read-out: t1/2 terminal half-life
Protocol: Anaesthesia was induced with 5% isoflurane (IsoFlo®, Abbott Laboratories, Abbott Park, IL, USA) and maintained by 2% of isoflurane in 100% O2. During the experiment, rats were kept normothermic using a heating blanket (Homeothermic Blanket Control Unit; Bruker). The rat was positioned in supine position on an operating table and the two distal hind limbs were fixed forming an approximately 30° angle with the horizontal plane. The surgical region was scrubbed using Betadine, starting in the centre, and making a circular sweep outward. A skin incision was made in the femoral region. Soft tissue was dissected to expose the femoral neurovascular bundle, consisting of femoral vein, artery, and nerve. Fine tip forceps were placed between the artery, vein and nerve and were slowly opened to separate the vessels, exposing an approximately 1 cm length section of artery/vein. The vena profunda femoris was sutured to avoid retrograde bleeding via this vessel, and the sapheno-femoral junction was cauterized. A few millimetres from venatomy, a vascular clip was inserted in the direction of the catheter (to control the flow) and a suture was applied in the opposite direction (to avoid retrograde bleeding). The same operation was carried out both on the femoral vein and femoral artery. An appropriate syringe filled with 50 U/mL Heparin/physiologic saline solution was fixed at the terminus of the catheters and these were filled with heparinized saline solution. On the upper half of the vessel circumference, at a 45° angle, an incision was made and the catheter (fine bore polythene tubing: ID 0.58 mm, OD 0.98 mm) was inserted through the venotomy and advanced to the vascular clip. The vascular clip was then removed, and the catheter advanced distally towards the level of the inguinal ligament. The catheter was finally secured to the femoral vein/artery proximally and distally with 2 single knots using 4–0 braided silk suture. The catheters were connected to an in-house developed system composed by a peristaltic pump and gamma-radiation coincidence detector (Bioscan, B-FC-4100). The femoral artery catheter, the gamma detector, the peristaltic pump, and the femoral vein catheter were thus connected in series, to enable the extracorporeal circulation of blood (flow 150 μL/s from femoral artery to femoral vein) and continuous measurement of radioactivity in the blood (Figure 1).
The labelled compounds were administrated two different ways: (i) intravenous bolus infusion (ca. 37 MBq in 300 μL of saline solution was injected through the femoral vein catheter) and (ii) oral bolus administration. For oral administration, animals were fasted for 5 h. The radioactive dose (ca. 74 MBq in 300 μL of saline solution) was administered using flexible 20-gauge disposable flexible PTFE feeding needles (Fine Science Tools, F.S.T.) and a small animal Laryngoscope (Penn-Century, Model LS-2) for the correct visualization of the oesophagus. The study was conducted under no carrier added (NCA, dose adjusted to 1 μg/Kg) and carrier added (CA, dose adjusted to 5 mg/Kg) conditions. In all cases, data were imported in real time to an excel sheet using PLX-DAX add-on for Microsoft Excel (measured in volts per second).
Arterial blood samples (1 per animal) were withdrawn (see Figure 1) from the femoral artery catheter and introduced into a capillary (Microhaematocrit capillaries 75 × 1.55, Nahita). Samples were centrifuged at 11,000× g […] for 10 min and the haematocrit was determined. A second blood sample was withdrawn and the amount of radioactivity of a fixed volume (10 µL) was measured in an automatic gamma counter (2470 Wizard, PerkinElmer) to determine Cb (concentration of radioactivity in blood) and convert data imported with PLX-DAX (Volts per seconds) into Bq/s using a previously determined calibration curve. Values were then expressed as percentage of injected dose per gram of blood (% ID/g). […]

[2] = In vitro metabolism with rat liver microsomes; format: in vitro ADME; settings: NADPH, 30 min
Protocol: Labelled compounds ([^11C]AHK2.1, 2.8 MBq, 0.4 nmol; [^11C]AHK2.2, 4.7–5.1 MBq, 0.2–0.4 nmol; [^3H]AHK2, 0.25 MBq, 0.5 nmol; or non-radioactive AHK2, the latter for metabolite identification) and microsomal protein (rat Sprague Dawley microsomes, Thermo Fisher Scientific, Carlsbad, CA, USA; which are a sub-cellular fraction of hepatocytes containing enzymes responsible for the metabolism of over 90% of commercial drugs; 20 mg/mL) were pre-incubated for 5 min with gentle agitation (300 rpm) in 100 mM phosphate buffer (pH 7.4). The reaction was initiated by the addition of 10 μL freshly prepared 20 mM nicotinamide adenine dinucleotide phosphate (NADPH, Roche, Mannheim, Germany) in 100 mM phosphate buffer (pH 7.4). […] The resulting supernatants were analysed by HPLC, using an Agilent 1200 Series chromatograph equipped with a multiple wavelength UV detector (λ = 254 nm) and two radioactivity detectors, one of them equipped with a solid scintillation cell, especially designed to detect low energy β^- (Ramona, Raytest), and one of them equipped with a NaI crystal, for the detection of γ-rays (Gabi, Raytest). […] For the non-radioactive AHK2, the resulting supernatants were analysed by ultra-high-performance liquid chromatography coupled with electrospray ionization time-of-flight mass spectrometry (UHPLC-ESI-TOF-MS, Electrospray positive mode/W mode m/z range 100–1000). […]

[3] = 1 ug/kg, intravenous, 1 µg/Kg, n = 5
[4] = intravenous, both groups (1 µg/Kg and 5 mg/Kg) pooled together

MRT [1, 3]: 8.48 min
Vd ([1]; 1 ug/kg, intravenous, 1 µg/Kg, n = 5, read-out: Vss volume of distribution at the steady state): 1.03 ± 0.695 L
Vd ([1]; 1 ug/kg, intravenous, 1 µg/Kg, n = 5, read-out: Vz volume of distribution based on the terminal slope): 2 ± 0.43 L
half-life [1, 3]: 11.7 ± 3.22 min
Vd ([1]; 5 mg/kg, intravenous, 5 mg/Kg, n = 5, read-out: Vss volume of distribution at the steady state): 1.13 ± 0.443 L
Vd ([1]; 5 mg/kg, intravenous, 5 mg/Kg, n = 5, read-out: Vz volume of distribution based on the terminal slope): 2.34 ± 0.609 L
half-life ([1]; 5 mg/kg, intravenous, 5 mg/Kg, n = 5): 13.6 ± 3.42 min
Vd ([1]; both groups (1 µg/Kg and 5 mg/Kg) pooled together, read-out: Vss volume of distribution at the steady state): 1.08 ± 0.809 L
Vd ([1]; both groups (1 µg/Kg and 5 mg/Kg) pooled together, read-out: Vz volume of distribution based on the terminal slope): 2.17 ± 1.13 L
half-life ([1]; both groups (1 µg/Kg and 5 mg/Kg) pooled together): 12.6 ± 3.3 min
MRT ([1]; intravenous, 5 mg/Kg, n = 5): 8.59 min
MRT [1, 4]: 8.53 min
AUC area under the curve ([1]; intravenous, 1 µg/Kg, n = 5): 53.99 ± 11.04 %IDxs/mL
Cl plasma clearance ([1]; intravenous, 1 µg/Kg, n = 5): 1.91 ± 0.41 mL/s
AUC area under the curve ([1]; intravenous, 5 mg/Kg, n = 5): 59.39 ± 19.76 %IDxs/mL
Cl plasma clearance ([1]; intravenous, 5 mg/Kg, n = 5): 1.87 ± 0.73 mL/s
AUC area under the curve [1, 4]: 56.69 ± 15.36 %IDxs/mL
Cl plasma clearance [1, 4]: 1.89 ± 0.55 mL/s
t1/2 terminal half-life [1, 4]: 12.63 ± 3.29 min
Compound: COc1ccc(SCc2cn(CCN(C)C)nn2)cc1 [AHK2, 1-[2-(N,N-dimethylamino)ethyl]-4-[(4-methoxyphenyl)thiomethyl]-1H-1,2,3-triazole]
main metabolic pathways [2]: oxidation of the thioether group into sulfoxide, demethylation of the CH3O-Ar residue and demethylation of –N(CH3)2
